Values of other authors in patent publication US20060160230A1, “Wipes and methods for removal of metal contamination from surfaces” (The Government of the United States of America as …, priority 2005, published 2006).

Assays:
[1] = 1999; rinse-off cosmetic products
[2] = 10% citric acid lotion applied topically for a three month period (Bernstein et al. 1997)

Row | Molecule | safety conclusion of CIR Expert Panel [1] | clinical signs of adverse effects [2]
1 | isostearamidopropyl morpholine lactate [ISML] | considered safe for use in rinse-off cosmetic products | –
2 | O=C(O)CC(O)(CC(=O)O)C(=O)O [citric acid] | – | No clinical signs of adverse effects
